Reference: patent US10167262B2, “Herbicidal substituted 3-arylpyrazoles” (FMC CORPORATION, priority 2014, dated 2019)

How the values were obtained:
Type in all cases: in vivo
[1] = system: blackgrass (Alopecurus myosuroides); assay: Test C pre-/postemergence greenhouse test, plant response rating 0-100; settings: Postemergence; for Plant response rating, Blackgrass: scale 0 to 100
Summary of the method: (§1)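 Scores run from 0, no effect, to 100, complete control, assigned by eye after treated plants and controls spent 13 to 15 days in a greenhouse. Soil-applied treatment went onto freshly sown seed in loam and sand; foliar treatment hit seedlings at the 1- to 4-leaf stage.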

[2] = system: giant foxtail (Setaria faberii); assay: as above; settings: Postemergence
Summary of the method: as §1

[3] = system: winter wheat (Triticum aestivum); assay: as above; settings: Postemergence
Summary of the method: as §1

[4] = system: galium (catchweed bedstraw, Galium aparine); assay: as above; settings: Postemergence
Summary of the method: as §1

[5] = system: lambsquarters (Chenopodium album); assay: as above; settings: Postemergence
Summary of the method: as §1

[6] = system: large (Lg) crabgrass (Digitaria sanguinalis); assay: as above; settings: Postemergence
Summary of the method: as §1

soybean (Glycine max) = assay: as above; settings: Postemergence
Summary of the method: as §1

[7] = system: yellow nutsedge (Cyperus esculentus); assay: as above; settings: Postemergence
Summary of the method: as §1

[8] = system: morningglory (Ipomoea coccinea); assay: as above; settings: Postemergence
Summary of the method: as §1

[9] = system: johnsongrass (Sorghum halepense); assay: as above; settings: Postemergence
Summary of the method: as §1

[10] = system: chickweed (common chickweed, Stellaria media); assay: Test C postemergence greenhouse test, plant response rating 0-100
Summary of the method: (§2)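 Formulated compounds applied postemergence; plants 1- to 4-leaf stage. Evaluated visually vs. untreated controls after roughly two weeks (13–15 d) under greenhouse conditions; 100 denotes complete control.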

kochia (Kochia scoparia) = assay: as above
Summary of the method: as §2

wild oat (Avena fatua) = assay: as above
Summary of the method: as §2

With O=C(c1ccccc1)c1cn(S(=O)(=O)CCl)nc1-c1cc(Cl)cc(Cl)c1 [Compound 1] the “Plant response rating (0 to 100), Blackgrass” value ([1]; 31 g ai/ha) was 0, the “Plant response rating (0 to 100), Blackgrass” value ([1]; 62 g ai/ha) was 0 and the “Plant response rating, Blackgrass” value ([1]; 125 g ai/ha) was 0. The “Plant response rating, Blackgrass” value ([1]; 250 g ai/ha) was 0, the “Plant response rating (0 to 100), Foxtail, Giant” value ([2]; 31 g ai/ha) was 0 and the “Plant response rating (0 to 100), Foxtail, Giant” value ([2]; 62 g ai/ha) was 0. For the same molecule, the “Plant response rating (0 to 100), Foxtail, Giant” value ([2]; 125 g ai/ha) was 0, the “Plant response rating, Foxtail, Giant” value ([2]; 250 g ai/ha, scale 0 to 100) was 0 and the “Plant response rating (0 to 100), Wheat” value ([3]; 62 g ai/ha) was 0. The “Plant response rating (0 to 100), Wheat” value ([3]; 125 g ai/ha) was 0, the “Plant response rating, Wheat” value ([3]; 250 g ai/ha, scale 0 to 100) was 0 and the “Plant response rating (0 to 100), Galium” value ([4]; 31 g ai/ha) was 0. For the same molecule, the “Plant response rating (0 to 100), Galium” value ([4]; 62 g ai/ha) was 0, the “Plant response rating (0 to 100), Galium” value ([4]; 125 g ai/ha) was 0 and the “Plant response rating, Galium” value ([4]; 250 g ai/ha, scale 0 to 100) was 20. The “Plant response rating (0 to 100), Lambsquarters” value ([5]; 62 g ai/ha) was 70, the “Plant response rating (0 to 100), Lambsquarters” value ([5]; 125 g ai/ha) was 85 and the “Plant response rating, Lambsquarters” value ([5]; 250 g ai/ha, scale 0 to 100) was 85. For the same molecule, the “Plant response rating (0 to 100), Crabgrass, Large” value ([6]; 31 g ai/ha) was 0, the “Plant response rating (0 to 100), Crabgrass, Large” value ([6]; 62 g ai/ha) was 0 and the “Plant response rating (0 to 100), Crabgrass, Large” value ([6]; 125 g ai/ha) was 0. The “Plant response rating, Crabgrass, Large” value ([6]; 250 g ai/ha, scale 0 to 100) was 0, the “Plant response rating (0 to 100), Soybean” value (soybean (Glycine max); 62 g ai/ha) was 0 and the “Plant response rating (0 to 100), Soybean” value (soybean (Glycine max); 125 g ai/ha) was 0. For the same molecule, the “Plant response rating, Soybean” value (soybean (Glycine max); 250 g ai/ha, scale 0 to 100) was 0, the “Plant response rating (0 to 100), Nutsedge, Yellow” value ([7]; 62 g ai/ha) was 0 and the “Plant response rating (0 to 100), Nutsedge, Yellow” value ([7]; 125 g ai/ha) was 0. The “Plant response rating, Nutsedge, Yellow” value ([7]; 250 g ai/ha, scale 0 to 100) was 10, the “Plant response rating (0 to 100), Morningglory” value ([8]; 62 g ai/ha) was 0 and the “Plant response rating (0 to 100), Morningglory” value ([8]; 125 g ai/ha) was 0. The “Plant response rating, Morningglory” value ([8]; 250 g ai/ha, scale 0 to 100) was 0, the “Plant response rating (0 to 100), Johnsongrass” value ([9]; 62 g ai/ha) was 0 and the “Plant response rating (0 to 100), Johnsongrass” value ([9]; 125 g ai/ha) was 0. For the same molecule, the “Plant response rating, Johnsongrass” value ([9]; 250 g ai/ha, scale 0 to 100) was 0, the “Plant response rating (0 to 100), Chickweed” value ([10]; 31 g ai/ha) was 90 and the “Plant response rating (0 to 100), Chickweed” value ([10]; 62 g ai/ha) was 100. For the same molecule, the “Plant response rating (0 to 100), Chickweed” value ([10]; 125 g ai/ha) was 100, the “Plant response rating, Chickweed” value ([10]; 250 g ai/ha, scale 0 to 100) was 100 and the “Plant response rating (0 to 100), Kochia” value (kochia (Kochia scoparia); 62 g ai/ha) was 80. For the same molecule, the “Plant response rating (0 to 100), Kochia” value (kochia (Kochia scoparia); 125 g ai/ha) was 85, the “Plant response rating, Kochia” value (kochia (Kochia scoparia); 250 g ai/ha, scale 0 to 100) was 90 and the “Plant response rating (0 to 100), Oat, Wild” value (wild oat (Avena fatua); 62 g ai/ha) was 0. For the same molecule, the “Plant response rating (0 to 100), Oat, Wild” value (wild oat (Avena fatua); 125 g ai/ha) was 0 and the “Plant response rating, Oat, Wild” value (wild oat (Avena fatua); 250 g ai/ha, scale 0 to 100) was 0.
